These results are taken from PubChem BioAssay (NCI).

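Compound exposure: 48 hours, 5 concentrations, 96-well plates. TGI: concentration producing complete growth inhibition.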 Where a SMILES comes first, the peptide text is derived from it.

Some test systems named below: A549 NSCLC; IGROV1 ovarian; K-562 leukemia; M14 melanoma; MDA-N; OVCAR-4 ovarian; OVCAR-8 ovarian; RPMI-8226 leukemia; RXF 393 renal; SK-MEL-28 melanoma; SN12C renal.
Holding throughout (assay): growth of human tumour cells (NCI), 48 h

With `Cc1cc(OP2(=O)NCc3ccncc3O2)ccc1Cl` (stereo unspecified), the TGI with A549 NSCLC, in the test with IGROV1 ovarian, in the test on K-562 leukemia, in the test on M14 melanoma, with MDA-N and with OVCAR-4 ovarian was above 100 µM throughout. In addition, the TGI in the test on OVCAR-8 ovarian, in the test with RPMI-8226 leukemia, with RXF 393 renal, in the test with SK-MEL-28 melanoma and in the test on SN12C renal was above 100 µM in each case.
Consider `C[C@H](CCC(=O)O)[C@H]1CC[C@H]2[C@@H]3[C@H](O)[C@H](O)[C@@H]4C[C@H](O)CC[C@]4(C)[C@H]3CC[C@]12C`, for which the TGI with A549 NSCLC, in the test with IGROV1 ovarian, with K-562 leukemia, with M14 melanoma, in the test on MDA-N and in the test with OVCAR-4 ovarian was above 100 µM each time. Moreover, the TGI in the test on OVCAR-8 ovarian, in the test with RPMI-8226 leukemia, with RXF 393 renal, in the test on SK-MEL-28 melanoma and in the test with SN12C renal was above 100 µM throughout.
Consider `CCN(CC)CCOCCOCC1(c2ccc(Cl)c(Cl)c2)CCCCC1`, for which the TGI in the test on A549 NSCLC is 23.1 µM; in the test with IGROV1 ovarian, 23.8 µM; with K-562 leukemia it was 12.7 µM; in the test on M14 melanoma it was 3.29 µM; in the test with MDA-N, 13.8 µM; with OVCAR-4 ovarian, 26.2 µM. Also, the TGI in the test on OVCAR-8 ovarian amounted to 28.8 µM; with RPMI-8226 leukemia it was 6.45 µM; in the test with RXF 393 renal, 17.6 µM; with SK-MEL-28 melanoma, 12.3 µM; in the test on SN12C renal it was 24.9 µM.
Regarding `Cc1ccc(F)c2[nH]c(-c3ccccc3)cc(=O)c12`, the TGI in the test with A549 NSCLC was above 53.5 µM; in the test on IGROV1 ovarian it was above 100 µM; in the test on K-562 leukemia it was above 100 µM; with M14 melanoma, above 100 µM; in the test with MDA-N, above 100 µM; in the test on OVCAR-4 ovarian it was above 100 µM. For the same molecule, the TGI in the test with OVCAR-8 ovarian was above 100 µM; with RPMI-8226 leukemia it was above 100 µM; in the test with RXF 393 renal, 21.5 µM; in the test with SK-MEL-28 melanoma, above 40.1 µM; in the test on SN12C renal it was above 100 µM.
For `COc1c(O)cc2c(c1O)C(=O)C(Cc1ccc(O)cc1)CO2` (stereo unspecified), the TGI in the test with A549 NSCLC, with IGROV1 ovarian, in the test with K-562 leukemia, with M14 melanoma, with MDA-N and in the test on OVCAR-4 ovarian was above 100 µM throughout. In addition, the TGI in the test with OVCAR-8 ovarian, in the test on RPMI-8226 leukemia, with RXF 393 renal, in the test with SK-MEL-28 melanoma and in the test on SN12C renal was above 100 µM in each case.
For the molecule `Fc1ccccc1-c1cc(=S)c2cc3c(cc2[nH]1)OCO3`, the TGI was above 100 µM in the test with A549 NSCLC; above 100 µM in the test with IGROV1 ovarian; above 100 µM in the test on K-562 leukemia; above 100 µM with M14 melanoma; above 26.7 µM with MDA-N; above 100 µM with OVCAR-4 ovarian. Further, the TGI is above 100 µM in the test with OVCAR-8 ovarian; above 70 µM in the test on RPMI-8226 leukemia; above 100 µM in the test on RXF 393 renal; above 100 µM with SK-MEL-28 melanoma; above 100 µM in the test on SN12C renal.
Turning to `COP(=O)(/C=C/C(NC(=O)C(Cl)(Cl)Cl)c1ccccc1)OC` (stereo unspecified), the TGI with A549 NSCLC, in the test with IGROV1 ovarian, in the test with K-562 leukemia, with M14 melanoma, in the test on MDA-N and in the test on OVCAR-4 ovarian was above 100 µM in each case. Also, the TGI in the test on OVCAR-8 ovarian, in the test on RPMI-8226 leukemia, in the test on RXF 393 renal, with SK-MEL-28 melanoma and with SN12C renal was above 100 µM in each case.
On to `CCc1cc2c(cc1C(=O)CCC(=O)O)CC1(C2)Cc2cc(CC)c(C(=O)CCC(=O)O)cc2C1`, for which the TGI in the test with A549 NSCLC, in the test with IGROV1 ovarian, in the test on K-562 leukemia, in the test with M14 melanoma, in the test on MDA-N and in the test with OVCAR-4 ovarian was above 100 µM throughout. The TGI with OVCAR-8 ovarian, with RPMI-8226 leukemia, in the test on RXF 393 renal, with SK-MEL-28 melanoma and in the test on SN12C renal was above 100 µM each time.
On to `C[C@H](CCC(=O)O)[C@H]1CC[C@H]2[C@@H]3[C@@H](O)C[C@@H]4C[C@H](O)CC[C@]4(C)[C@H]3C[C@H](O)[C@]12C`, for which the TGI with A549 NSCLC, in the test with IGROV1 ovarian, in the test on K-562 leukemia, with M14 melanoma, in the test with MDA-N and in the test with OVCAR-4 ovarian was above 100 µM each time. Moreover, the TGI in the test with OVCAR-8 ovarian, in the test with RPMI-8226 leukemia, with RXF 393 renal, in the test with SK-MEL-28 melanoma and with SN12C renal was above 100 µM in each case.
`CCCC(=O)Oc1c2ccsc2c(OC(=O)CCC)c2ccsc12`: the TGI in the test with A549 NSCLC is 6.84 µM; with IGROV1 ovarian it was 6.87 µM; with K-562 leukemia it was 8.46 µM; in the test with M14 melanoma, above 12.8 µM; in the test with MDA-N it was 0.725 µM; in the test with OVCAR-4 ovarian it was 5.7 µM. Also, the TGI with OVCAR-8 ovarian came to 2.02 µM; with RPMI-8226 leukemia it was 5.48 µM; in the test on RXF 393 renal, 5.86 µM; with SK-MEL-28 melanoma, 1.59 µM; in the test with SN12C renal it was 2.98 µM.
As for `CC(=O)NC(CS)C(=O)NC(CO)C(=O)NC(CO)C(=O)NC(Cc1c[nH]c2ccccc12)C(=O)N1CCCC1C(=O)NC(CO)C(=O)NC(Cc1c[nH]c2ccccc12)C(=O)NC(Cc1c[nH]cn1)C(=O)NC(CO)C(=O)NC(Cc1c[nH]c2ccccc12)C(=O)NCC(=O)NCC(=O)NC(C)C(=O)NC(CCC(N)=O)C(=O)NC(CCCCN)C(=O)NC(C)C(=O)NC(CCCNC(=N)N)C(=O)NC(CCCCN)C(N)=O` (stereo unspecified) (Ac-CSSWPSWHSWGGAQKARK-NH2; configuration not given here), the TGI in the test with A549 NSCLC is above 50 µM; in the test with IGROV1 ovarian, above 50 µM; with K-562 leukemia, 28.5 µM; in the test on M14 melanoma, above 50 µM; with MDA-N it was above 50 µM; in the test with OVCAR-4 ovarian, above 50 µM. For the same molecule, the TGI in the test with OVCAR-8 ovarian is above 50 µM; in the test with RPMI-8226 leukemia, above 50 µM; in the test with RXF 393 renal it was 24.9 µM; with SK-MEL-28 melanoma it was 20.9 µM; in the test with SN12C renal, above 50 µM.
